Experimental data taken from US20150342956A1, “METHODS OF TREATMENT FOR CONDITIONS MEDIATED BY SUBSTANCE P” (Beller Pharmaceuticals LLC, priority 2014, published 2015).

Columns and labels:
[1] = tested on: INS symptoms in patients with a diagnosis of atypical reflux; assay: Retrospective medical record review: global level of improvement (GLI) with immunotherapy and/or oral medications; assay type: in vivo, human; conditions: GLI 0-100% score
Experimental: Some symptoms of INS have previously been associated with atypical reflux. This example describes a retrospective medical record review for cases in which these symptoms were treated with immunotherapy (allergy shots) and/or oral medications (omeprazole, gabapentin, and/or baclofen).
The population for this example included patients 18 years or older with a diagnosis of atypical reflux and a recorded diagnostic code of 530.81 (see, e.g., http://www.cms.gov/Medicare/Coding/ICD9ProviderDiagnosticCodes/index.html). A randomized sample of 307 cases was derived from a total of 650 patients.
Of the 307 cases, 191 (62.2%) patients tested positive for allergy, 74 (24.1%) were negative, and 42 (13.7%) had unknown allergy status. Allergy refers to IgE-mediated allergies such as ragweed, dust mites, trees, grass, pets, stinging insects, peanuts, etc. Of the 191 cases with allergy, 57 (29.8%) had no immunotherapy, 8 (4.2%) had received immunotherapy in the past, and 126 (66.0%) were currently receiving immunotherapy. Of the 126 currently receiving immunotherapy (abbreviated below as “IT”), 70 (55.6%) had reached maintenance dosing (defined as the effective, therapeutic dose; “on main”) and 56 […] had not yet reached maintenance dosing (“not on main”). The period of immunotherapy is about 3-5 years, and individuals typically reach maintenance dosing by the second half of the first year.
Of the 307 cases, 213 (69.3%) were taking one medication and 86 (28%) were taking no medication. Seven patients were taking two medications, and one patient was taking three medications. Three oral medications used to treat INS were compared: high dose acid suppression using omeprazole (40 mg twice a day), baclofen (40 mg twice a day), and gabapentin (300 mg gradually increasing from one to three times a day).
Global level of improvement (GLI) was represented by a 0-100% score. At each clinical visit, patients were asked to estimate the percentage of their overall improvement. Those figures were entered into the medical record as a GLI score. Trials documented as failed (stopped either due to lack of benefit or dose-limiting side effects) or inadequate (dose never titrated to benefit or side effect) are not included in the results below.

[2] = tested on: INS symptoms; assay: Exemplary cases of INS: patient-ranked symptom severity (1-10) and GLI score before and after treatment; assay type: in vivo, human; conditions: for Global Improvement (global level of improvement): three months (gabapentin stopped more than a month prior)
Experimental: This example describes three exemplary cases of INS. Patients were given a list of INS symptoms and asked to rank those present on a scale of 1-10, with 10 indicating most severe. Treatment was provided (gabapentin, omeprazole, and/or immunotherapy).
Patient two is a person who presented complaining of cough, runny nose, and sneezing. […] They were started on gabapentin (900 mg) and returned in two weeks for re-evaluation. They reported 60% global level of improvement with gabapentin. They were also started on immunotherapy for its long-lasting benefits. They returned for further evaluation three months later to report they had improved by 85% and had stopped the gabapentin more than a month prior to their last visit. Their symptoms were scored for severity from 1 (mild) to 10 (severe) on initial evaluation, after gabapentin, and after three months of immunotherapy. Their scores are below:
Patient three is a person who presented complaining of cough, post nasal drip, and runny nose. […] The patient was started on immunotherapy and returned for follow-up after four months of immunotherapy. Due to their busy schedule the patient had missed several shot visits and their immunotherapy doses were never increased to the maximum, maintenance dose. They were receiving doses at 1/10th of the maintenance dose. They reported 40% improvement. Omeprazole 40 mg two times daily was added to their regimen and they returned for re-evaluation one week later to report 100% improvement. Their symptom scores are below:
Patient one is a child who presented with their parent complaining of shortness of breath and cough. […] Their parent stated that they commonly wet the bed 2-3 times each night. They were started on omeprazole 20 mg twice a day and returned in a week. […] Their parent estimated 45% global level of improvement. The omeprazole was discontinued due to headaches and they were started on gabapentin. Their parent was advised to increase the dose slowly until it seemed to help or was causing side effects. They returned in two weeks for re-evaluation and had achieved 900 mg twice daily on gabapentin. Their parent estimated 85% global level of improvement.

[3] = No IT (no allergy, or positive allergy but no immunotherapy)
[4] = Patient one, omeprazole 20 mg twice a day, one week, then gabapentin 900 mg twice daily, two weeks
[5] = Patient one, score 1-10, 0 = not present, initial visit 0, omeprazole 20 mg twice a day, one week, then gabapentin 900 mg twice daily, two weeks
[6] = Patient one, score 1-10, 0 = not present, initial visit 3, omeprazole 20 mg twice a day, one week, then gabapentin 900 mg twice daily, two weeks
[7] = Patient one, score 1-10, 0 = not present, initial visit 4, omeprazole 20 mg twice a day, one week, then gabapentin 900 mg twice daily, two weeks
[8] = Patient one, score 1-10, 0 = not present, initial visit 5, omeprazole 20 mg twice a day, one week, then gabapentin 900 mg twice daily, two weeks
[9] = Patient one, score 1-10, 0 = not present, initial visit 6, omeprazole 20 mg twice a day, one week, then gabapentin 900 mg twice daily, two weeks
[10] = Patient one, score 1-10, 0 = not present, initial visit 7, omeprazole 20 mg twice a day, one week, then gabapentin 900 mg twice daily, two weeks
[11] = Patient one, score 1-10, 0 = not present, initial visit 8, omeprazole 20 mg twice a day, one week, then gabapentin 900 mg twice daily, two weeks
[12] = Patient one, score 1-10, 0 = not present, initial visit 10, omeprazole 20 mg twice a day, one week, then gabapentin 900 mg twice daily, two weeks
[13] = Patient three, score 1-10, 0 = not present, initial visit 5, immunotherapy four months at 1/10th of maintenance dose, then omeprazole 40 mg two times daily added, one week
[14] = Patient three, score 1-10, 0 = not present, initial visit 6, immunotherapy four months at 1/10th of maintenance dose, then omeprazole 40 mg two times daily added, one week
[15] = Patient three, score 1-10, 0 = not present, initial visit 7, immunotherapy four months at 1/10th of maintenance dose, then omeprazole 40 mg two times daily added, one week
[16] = Patient three, score 1-10, 0 = not present, initial visit 10, immunotherapy four months at 1/10th of maintenance dose, then omeprazole 40 mg two times daily added, one week
[17] = Patient two, score 1-10, 0 = not present, initial visit 5, gabapentin 900 mg, two weeks, immunotherapy, three months
[18] = Patient two, score 1-10, 0 = not present, initial visit 6, gabapentin 900 mg, two weeks, immunotherapy, three months
[19] = Patient two, score 1-10, 0 = not present, initial visit 7, gabapentin 900 mg, two weeks, immunotherapy, three months
[20] = Patient two, score 1-10, 0 = not present, initial visit 8, gabapentin 900 mg, two weeks, immunotherapy, three months
[21] = Patient two, score 1-10, 0 = not present, initial visit 10, gabapentin 900 mg, two weeks, immunotherapy, three months

COc1ccc2[nH]c([S+]([O-])Cc3ncc(C)c(OC)c3C)nc2c1 (stereo not shown) [Omeprazole, omeprazole]
2: Fatigue severity score [2, 7] | Malaise severity score [2, 7] | Watery Eyes severity score [2, 9] | Pollakiuria severity score [2, 11]
0: Vulvodynia severity score [2, 6] | Nausea severity score [2, 7] | Bedwetting severity score [2, 12] | Ear Pressure severity score [2, 13] | Pain in the teeth severity score [2, 13] | Repetitive Sneezing severity score [2, 13] | Epistaxis severity score [2, 14] | Frontal Headache severity score [2, 14] | Pollakiuria severity score [2, 14] | Sore Throat severity score [2, 15] | Watery Eyes severity score [2, 15] | Chest Tightness severity score [2, 16] | Cough severity score [2, 16] | Nasal Congestion severity score [2, 16] | Post Nasal Drip severity score [2, 16] | Runny Nose severity score [2, 16] | Sinus Pressure severity score [2, 16] | Throat Clearing severity score [2, 16] | Vertigo severity score [2, 16]
60.00%: Mean GLI ([1]; IT not on maintenance dosing)
41.00%: Mean GLI ([1]; No allergy)
1: Excessive Ear Wax severity score [2, 13] | Hoarse Voice severity score [2, 15] | Itchy Eyes severity score [2, 15]
4: Cough severity score [2, 11]
some headaches: Possible side effect ([2]; Patient one, omeprazole 20 mg twice a day, one week, drug discontinued)
100%: Global Improvement ([2]; Patient three, immunotherapy four months at 1/10th of maintenance dose, then omeprazole 40 mg two times daily added, one week)
80.00%: Mean GLI ([1]; IT on maintenance dosing)
8: Frontal Headache severity score [2, 5] | Throat Clearing severity score [2, 11]
5: Shortness of breath severity score [2, 8] | Sore Throat severity score [2, 10] | Runny Nose severity score [2, 12]
56.67%: Mean GLI [1, 3]
45%: Global Improvement (global level of improvement, estimated by mother) [2, 4] | Global Improvement (global level of improvement, estimated by mother) ([2]; Patient one, omeprazole 20 mg twice a day, one week, then gabapentin 900 mg twice daily, two weeks, listed as omeprazole)
3: Chest Tightness severity score [2, 9] | Post Nasal Drip severity score [2, 11]

NCC(CC(=O)O)c1ccc(Cl)cc1 (stereo not shown) [Baclofen, baclofen]
70.00%: Mean GLI ([1]; IT on maintenance dosing)
88.33%: Mean GLI ([1]; IT not on maintenance dosing)
53.94%: Mean GLI [1, 3]
65.00%: Mean GLI ([1]; No allergy)

NCC1(CC(=O)O)CCCCC1 [Gabapentin, gabapentin]
1: Hoarse Voice severity score ([2]; Patient two, score 1-10, 0 = not present, initial visit 2, gabapentin 900 mg, two weeks, immunotherapy, three months) | Pain in the teeth severity score ([2]; Patient two, score 1-10, 0 = not present, initial visit 3, gabapentin 900 mg, two weeks, immunotherapy, three months) | Malaise severity score [2, 17] | Runny Nose severity score [2, 19] | Sore Throat severity score [2, 19] | Throat Clearing severity score [2, 19] | Vertigo severity score [2, 19] | Post Nasal Drip severity score [2, 20] | Frontal Headache severity score [2, 21] | Itchy Eyes severity score [2, 21]
65.58%: Mean GLI [1, 3]
5: Shortness of breath severity score [2, 8] | Throat Clearing severity score [2, 11]
69.09%: Mean GLI ([1]; IT not on maintenance dosing)
2: Fatigue severity score [2, 7] | Malaise severity score [2, 7] | Pollakiuria severity score [2, 11] | Ear Pressure severity score [2, 17] | Watery Eyes severity score [2, 17] | Chest Tightness severity score [2, 19] | Cough severity score ([2]; Patient two, score 1-10, 0 = not present, initial visit 9, gabapentin 900 mg, two weeks, immunotherapy, three months) | Repetitive Sneezing severity score [2, 21]
60%: Global Improvement (global level of improvement) ([2]; Patient two, gabapentin 900 mg, two weeks, immunotherapy) | Global Improvement (global level of improvement) ([2]; Patient two, gabapentin 900 mg, two weeks, immunotherapy, listed as gabapentin)
3: Cough severity score [2, 11] | Post Nasal Drip severity score [2, 11] | Fatigue severity score [2, 18] | Glossodynia severity score [2, 19] | Puffy Eyelids severity score [2, 20] | Itchy Pharynx severity score [2, 21] | Sinus Pressure severity score [2, 21]
70.29%: Mean GLI ([1]; IT on maintenance dosing)
55.19%: Mean GLI ([1]; No allergy)
4: Shortness of breath severity score [2, 18] | Itchy Skin severity score [2, 21]
85%: Global Improvement (global level of improvement, estimated by mother) [2, 4] | Global Improvement (global level of improvement, estimated by mother) ([2]; Patient one, omeprazole 20 mg twice a day, one week, then gabapentin 900 mg twice daily, two weeks, listed as gabapentin)
0: Frontal Headache severity score [2, 5] | Vulvodynia severity score [2, 6] | Nausea severity score [2, 7] | Chest Tightness severity score [2, 9] | Watery Eyes severity score [2, 9] | Sore Throat severity score [2, 10] | Bedwetting severity score [2, 12] | Runny Nose severity score [2, 12]
